Values joined by “and” are separate entries in the source; they are usually repeats but may differ in a detail not shown here. Identical values can stand only once. ± gives the uncertainty stated by the source.
C1=CCCCC1 showed a viscosity (303.15 K, 101 kPa) of 0.573 ± 0.007 mPa·s.

With C=C(C)C(=O)OCC the viscosity (298.15 K, 101 kPa) was 0.6412 ± 0.014 mPa·s, the viscosity (303.15 K, 101 kPa) was 0.5825 ± 0.013 mPa·s and the viscosity (308.15 K, 101 kPa) was 0.5323 ± 0.011 mPa·s. The viscosity (313.15 K, 101 kPa) was 0.4915 ± 0.01 mPa·s and the viscosity (318.15 K, 101 kPa) was 0.4586 ± 0.0098 mPa·s.

Compound CC(=O)[O-].CCCC[NH2+]CCO has a viscosity (293.15 K, 101 kPa) of 1412 ± 70 mPa·s, a viscosity (298.15 K, 101 kPa) of 921.1 ± 41 mPa·s and a viscosity (303.15 K, 101 kPa) of 616.9 ± 24 mPa·s. It also gave a viscosity (308.15 K, 101 kPa) of 423.3 ± 15 mPa·s, a viscosity (313.15 K, 101 kPa) of 297 ± 9.3 mPa·s and a viscosity (318.15 K, 101 kPa) of 212.7 ± 6 mPa·s. The viscosity (323.15 K, 101 kPa) was 155.3 ± 4 mPa·s.

For CC(C)CC1CCCCC1, the viscosity (293.15 K, 102 kPa) was 1.17 ± 0.02 mPa·s, the viscosity (303.15 K, 102 kPa) was 1 ± 0.02 mPa·s and the viscosity (313.15 K, 102 kPa) was 0.871 ± 0.021 mPa·s. The viscosity (323.15 K, 102 kPa) was 0.765 ± 0.021 mPa·s.

For CC(C)O, the viscosity (293.15 K, 101.32 kPa) was 2.29 ± 0.018 mPa·s, the viscosity (298.15 K, 101.3 kPa) was 2.012 ± 0.049 mPa·s and the viscosity (298.15 K, 101.33 kPa) was 1.936 ± 0.013 mPa·s. The viscosity (303 K, 101 kPa) was 1.49 ± 0.14 mPa·s, the viscosity (303.15 K, 100 kPa) was 1.73 ± 0.17 mPa·s and the viscosity (303.15 K, 101.33 kPa) was 1.878 ± 0.019 mPa·s and 1.731 ± 0.011 mPa·s and 1.4 ± 0.024 mPa·s. For the same compound, the viscosity (308.15 K, 100 kPa) was 1.579 ± 0.048 mPa·s and 1.49 ± 0.15 mPa·s, the viscosity (308.15 K, 101.3 kPa) was 1.485 ± 0.037 mPa·s and the viscosity (308.15 K, 101.33 kPa) was 1.494 ± 0.01 mPa·s. For the same compound, the viscosity (313 K, 101 kPa) was 1.13 ± 0.11 mPa·s, the viscosity (313.15 K, 101 kPa) was 1.319 ± 0.033 mPa·s and 1.281 ± 0.06 mPa·s and 1.4 ± 0.03 mPa·s and the viscosity (313.15 K, 101.3 kPa) was 1.322 ± 0.011 mPa·s. For the same compound, the viscosity (313.15 K, 101.33 kPa) was 1.427 ± 0.014 mPa·s and 1 ± 0.018 mPa·s, the viscosity (318.15 K, 100 kPa) was 1.171 ± 0.12 mPa·s and the viscosity (318.15 K, 101 kPa) was 1.228 ± 0.026 mPa·s. The viscosity (323.15 K, 100 kPa) was 0.995 ± 0.041 mPa·s, the viscosity (323.15 K, 101 kPa) was 1.063 ± 0.027 mPa·s and 1.083 ± 0.023 mPa·s and the viscosity (323.15 K, 101.33 kPa) was 1.105 ± 0.011 mPa·s and 1.056 ± 0.064 mPa·s.

In the case of CC1CCCCC1, the viscosity (293.15 K, 100 kPa) is reported as 0.736 ± 0.017 mPa·s (2×) and 0.73 ± 0.09 mPa·s, the viscosity (293.15 K, 101.2 kPa) is reported as 0.7298 ± 0.033 mPa·s and the viscosity (298.15 K, 100 kPa) is reported as 0.69 ± 0.08 mPa·s. The viscosity (298.15 K, 101 kPa) was 0.68 ± 0.006 mPa·s, the viscosity (298.15 K, 101.2 kPa) was 0.6819 ± 0.031 mPa·s and the viscosity (303.15 K, 100 kPa) was 0.65 ± 0.08 mPa·s and 0.639 ± 0.014 mPa·s. It also gave a viscosity (303.15 K, 101 kPa) of 0.6416 ± 0.0044 mPa·s, a viscosity (303.15 K, 101.2 kPa) of 0.6389 ± 0.029 mPa·s and a viscosity (303.15 K, 101.3 kPa) of 0.6407 ± 0.0044 mPa·s. The viscosity (303.15 K, 101.33 kPa) was 0.639 ± 0.0085 mPa·s, the viscosity (308.15 K, 100 kPa) was 0.61 ± 0.07 mPa·s and the viscosity (313.15 K, 100 kPa) was 0.568 ± 0.013 mPa·s. For the same compound, the viscosity (313.15 K, 101.2 kPa) was 0.5641 ± 0.025 mPa·s, the viscosity (318.15 K, 100 kPa) was 0.54 ± 0.07 mPa·s and the viscosity (318.15 K, 101.2 kPa) was 0.5314 ± 0.024 mPa·s. The viscosity (323.15 K, 100 kPa) was 0.51 ± 0.06 mPa·s and 0.501 ± 0.011 mPa·s.

CCC(C)CO (configuration not stated) gave a viscosity (298.15 K, 101 kPa) of 4.868 ± 0.045 mPa·s, a viscosity (303.15 K, 101.33 kPa) of 3.594 ± 0.048 mPa·s and a viscosity (313.15 K, 101.33 kPa) of 2.601 ± 0.035 mPa·s. The viscosity (323.15 K, 101.33 kPa) was 1.936 ± 0.026 mPa·s.

Compound CCCCC1CCCCC1 has a viscosity (323.15 K, 100 kPa) of 0.835 ± 0.01 mPa·s.

For CCCCCCCCCBr, the viscosity (297.75 K, 101 kPa) was 1.922 ± 0.042 mPa·s, the viscosity (303.55 K, 101 kPa) was 1.721 ± 0.037 mPa·s and the viscosity (313.65 K, 101 kPa) was 1.458 ± 0.032 mPa·s.

For CCCCCCCCn1cc[n+](C)c1.O=S(=O)([N-]S(=O)(=O)C(F)(F)F)C(F)(F)F, the viscosity (308.15 K, 100 kPa) was 56.43 ± 2.3 mPa·s.

Compound CCCCCN has a viscosity (293.15 K, 101.33 kPa) of 0.656 ± 0.004 mPa·s, a viscosity (298.15 K, 101.33 kPa) of 0.609 ± 0.004 mPa·s and a viscosity (303.15 K, 101 kPa) of 0.5809 ± 0.005 mPa·s. It also gave a viscosity (303.15 K, 101.33 kPa) of 0.563 ± 0.003 mPa·s, a viscosity (308.15 K, 101.33 kPa) of 0.523 ± 0.003 mPa·s and a viscosity (313.15 K, 101.33 kPa) of 0.484 ± 0.003 mPa·s. For the same compound, the viscosity (318.15 K, 101.33 kPa) was 0.457 ± 0.002 mPa·s.

In the case of CCCCC[P+](CC)(CC)CC.O=S(=O)([N-]S(=O)(=O)C(F)(F)F)C(F)(F)F, the viscosity (298.15 K, 101.3 kPa) is reported as 87.5 ± 18 mPa·s, the viscosity (303.15 K, 101.3 kPa) is reported as 68.8 ± 14 mPa·s and the viscosity (308.15 K, 101.3 kPa) is reported as 54.9 ± 11 mPa·s. The viscosity (318.15 K, 101.3 kPa) was 36.6 ± 7.3 mPa·s and the viscosity (323.15 K, 101.3 kPa) was 30.5 ± 6.1 mPa·s.
